# Data reported in patent publication US20260062422A1 (Halda Therapeutics OpCo, Inc., priority 2022, published 2026).
# Key:
# [1] = test system: T-Rex 293 cell line SC3 cells having increased expression of androgen receptor protein due to exposure to doxycycline; assay: Cellular growth inhibition, T-Rex 293 SC3 cells with doxycycline (androgen receptor induced), CellTiter-Glo; type: cell-based; conditions: T-Rex 293 SC3 cells with 10 ng/mL doxycycline (increased androgen receptor expression)
# Summary of the method: (§1)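 Doxycycline-inducible androgen receptor T-Rex 293 clone SC3, seeded at 2500/well in phenol red-free DMEM with 10% charcoal-dextran FBS, without doxycycline or with 10 ng/mL to induce receptor. Compound added after 24 h (0.5% DMSO), 72 h at 37 °C; CellTiter-Glo 2.0 luminescence, GI50 by four-parameter fit.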
# [2] = test system: T-Rex 293 cell line SC3 cells lacking increased expression of androgen receptor protein; assay: Cellular growth inhibition, T-Rex 293 SC3 cells without doxycycline, CellTiter-Glo; type: cell-based; conditions: T-Rex 293 SC3 cells not exposed to doxycycline, CellTiter-Glo 2.0
# Summary of the method: as §1
# VCaP cells = assay: Cellular growth inhibition assay for VCaP cells, CellTiter-Glo; type: cell-based, human; conditions: 72 hours treatment, CellTiter-Glo 2.0
# Summary of the method: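 GI50 values come from four-parameter curve fits of luminescence data normalized to a zero baseline. Compound, in medium with 0.5% DMSO, was added one day after plating and left for 72 h before CellTiter-Glo 2.0 addition.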
# T47D cells = assay: Cellular growth inhibition assay for T47D cells, CellTiter-Glo; type: cell-based, human; conditions: 72 hours treatment, CellTiter-Glo 2.0 cell viability
# Summary of the method: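 Luminescence from CellTiter-Glo 2.0 after 72 h of compound exposure gives the viability signal. Cells grew in insulin-supplemented (0.2 units/mL) DMEM with 10% FBS and were treated one day after seeding at 0.5% DMSO. GI50 values come from four-parameter nonlinear regression.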
SMILES,GI50 ([1]; 72 h),GI50 ([2]; 72 h),"GI50 (VCaP cells; Homo sapiens, VCaP, 72 h)","GI50 (T47D cells; Homo sapiens, T47D, 72 h)",GI50 ([1]; 72 hours),GI50 ([2]; 72 hours),GI50 (VCaP cells),GI50 (T47D cells)
Cc1sc2c(c1C)C(c1ccc(CCCN(C)C(=O)c3ncc(C(=O)N[C@H]4C(C)(C)[C@H](Oc5ccc(C#N)c(Cl)c5)C4(C)C)cn3)cc1)=N[C@@H](Cc1ncco1)c1nnc(C)n1-2 [Compound I-362],< 500 nM,> 3000 nM,< 500 nM,500 to 1500 nM,,,,
Cc1sc2c(c1C)C(c1ccc(CN(C)C(=O)CCc3ncc(C(=O)N[C@H]4C(C)(C)[C@H](Oc5ccc(C#N)c(Cl)c5)C4(C)C)cn3)cc1)=N[C@@H](Cc1ncco1)c1nnc(C)n1-2 [Compound I-317],1500 to 3000 nM,> 3000 nM,< 500 nM,500 to 1500 nM,,,,
Cc1sc2c(c1C)C(c1ccc(C[C@H]3C[C@]4(CN(c5ncc(C(=O)N[C@H]6C(C)(C)[C@H](Oc7ccc(C#N)c(Cl)c7)C6(C)C)cn5)CCO4)C3)cc1)=N[C@@H](Cc1ncco1)c1nnc(C)n1-2 [Compound I-245],< 500 nM,< 500 nM,< 500 nM,< 500 nM,,,,
Cc1sc2c(c1C)C(c1ccc(N3CC(CC4CCN(c5ncc(C(=O)N(C)[C@H]6C(C)(C)[C@H](Oc7ccc(C#N)c(Cl)c7)C6(C)C)cn5)CC4)C3)cc1)=N[C@@H](C)c1nnc(C)n1-2 [Compound I-618],< 500 nM,> 3000 nM,1500 to 3000 nM,< 500 nM,,,,
Cc1sc2c(c1C)C(c1ccc(C(=O)N3CCC(Cc4ncc(C(=O)N[C@H]5C(C)(C)[C@H](Oc6ccc(C#N)c(Cl)c6)C5(C)C)cn4)CC3)cc1)=N[C@H](Cc1ncco1)c1nnc(C)n1-2 [Compound I-289],< 500 nM,> 3000 nM,500 to 1500 nM,> 3000 nM,,,,
Cc1sc2c(c1C)C(c1ccc(C(=O)N3CCN(Cc4ncc(C(=O)N[C@H]5C(C)(C)[C@H](Oc6ccc(C#N)c(Cl)c6)C5(C)C)cn4)CC3)cc1)=N[C@H](Cc1ncco1)c1nnc(C)n1-2 [Compound I-328],1500 to 3000 nM,> 3000 nM,> 3000 nM,1500 to 3000 nM,,,,
COCC[C@@H]1N=C(c2ccc(OC3CC4(CCCN(c5ncc(C(=O)N[C@H]6C(C)(C)[C@@H](Oc7ccc(C#N)c(Cl)c7)C6(C)C)cn5)C4)C3)cc2)c2c(sc(C)c2C)-n2c(C)nnc21 [Compound I-569],< 500 nM,> 3000 nM,< 500 nM,> 3000 nM,,,,
Cc1sc2c(c1C)C(c1ccc(-c3cc(OC4CCN(c5ncc(C(=O)N[C@H]6C(C)(C)[C@H](Oc7ccc(C#N)c(Cl)c7)C6(C)C)cn5)CC4)ns3)cc1)=N[C@@H](Cc1ncco1)c1nnc(C)n1-2 [Compound I-389],< 500 nM,> 3000 nM,500 to 1500 nM,< 500 nM,,,,
Cc1sc2c(c1C)C(c1ccc(N3CCC(CNC(=O)c4ncc(C(=O)N[C@H]5C(C)(C)[C@H](Oc6ccc(C#N)c(Cl)c6)C5(C)C)cn4)CC3)cc1)=N[C@H](Cc1ncco1)c1nnc(C)n1-2 [Compound I-291],< 500 nM,500 to 1500 nM,< 500 nM,500 to 1500 nM,,,,
Cc1sc2c(c1C)C(c1ccc(CN(C)C(=O)NCc3ncc(C(=O)N[C@H]4C(C)(C)[C@H](Oc5ccc(C#N)c(Cl)c5)C4(C)C)cn3)cc1)=N[C@@H](Cc1ncco1)c1nnc(C)n1-2 [Compound I-361],> 3000 nM,> 3000 nM,1500 to 3000 nM,1500 to 3000 nM,,,,
Cc1sc2c(c1C)C(c1ccc(CCCOC3CCN(c4ncc(C(=O)N[C@H]5C(C)(C)[C@H](Oc6ccc(C#N)c(Cl)c6)C5(C)C)cn4)CC3)cc1)=C[C@H](Cc1ccncn1)c1nnc(C)n1-2 [Compound I-376],,,,,< 500 nM,< 500 nM,< 500 nM,< 500 nM
COCC[C@@H]1N=C(c2ccc(N3CC(CC4CCN(c5ncc(C(=O)N[C@H]6C(C)(C)[C@H](Oc7ccc(C#N)c(Cl)c7)C6(C)C)cn5)CC4)C3)cc2)c2c(sc(C)c2C)-n2c(C)nnc21 [Compound I-608],< 500 nM,> 3000 nM,< 500 nM,500 to 1500 nM,,,,
Cc1sc2c(c1C)C(c1ccc(CN3CCC4(CCCN(c5ncc(C(=O)N[C@H]6C(C)(C)[C@H](Oc7ccc(C#N)c(Cl)c7)C6(C)C)cn5)C4)C3)cc1)=NC(Cc1ncco1)c1nnc(C)n1-2 (some centres unmarked) [Compound I-137],< 500 nM,500 to 1500 nM,< 500 nM,< 500 nM,,,,
Cc1sc2c(c1C)C(c1ccc(C3CC(C4CCN(c5ncc(C(=O)N[C@H]6C(C)(C)[C@H](Oc7ccc(C#N)c(Cl)c7)C6(C)C)cn5)CC4)C3)cc1)=N[C@@H](Cc1ncco1)c1nnc(C)n1-2 (some centres unmarked) [Compound I-397],> 3000 nM,> 3000 nM,> 3000 nM,> 3000 nM,,,,
Cc1sc2c(c1C)C(c1ccc([C@H]3C[C@@H]([C@H]4CCN(c5ncc(C(=O)N[C@H]6C(C)(C)[C@H](Oc7ccc(C#N)c(Cl)c7)C6(C)C)cn5)C4)C3)cc1)=N[C@H](Cc1ncco1)c1nnc(C)n1-2 [Compound I-417],< 500 nM,< 500 nM,< 500 nM,< 500 nM,,,,
Cc1sc2c(c1C)C(c1ccc(NCC3CCCCN3c3ncc(C(=O)N[C@H]4C(C)(C)[C@H](Oc5ccc(C#N)c(Cl)c5)C4(C)C)cn3)cc1)=NC(Cc1ncco1)c1nnc(C)n1-2 (some centres unmarked) [Compound I-638],< 500 nM,< 500 nM,< 500 nM,< 500 nM,,,,
Cc1sc2c(c1C)C(c1ccc(O[C@H]3CC[C@@]4(CCN(c5ncc(C(=O)N[C@H]6C(C)(C)[C@H](Oc7ccc(C#N)c(Cl)c7)C6(C)C)cn5)C4)CC3)cc1)=N[C@@H](Cc1ncco1)c1nnc(C)n1-2 [Compound I-179],< 500 nM,< 500 nM,< 500 nM,500 to 1500 nM,,,,
COC[C@@H]1N=C(c2ccc(OC3CC4(CCCN(c5ncc(C(=O)N[C@H]6C(C)(C)[C@@H](Oc7ccc(C#N)c(Cl)c7)C6(C)C)cn5)C4)C3)cc2)c2c(sc(C)c2C)-n2c(C)nnc21 [Compound I-567],< 500 nM,> 3000 nM,< 500 nM,> 3000 nM,,,,
Cc1sc2c(c1C)C(c1ccc(C(=O)N3CCC[C@@H](C(=O)c4ncc(C(=O)N[C@H]5C(C)(C)[C@H](Oc6ccc(C#N)c(Cl)c6)C5(C)C)cn4)C3)cc1)=N[C@@H](Cc1ncco1)c1nnc(C)n1-2 [Compound I-344],> 3000 nM,> 3000 nM,500 to 1500 nM,500 to 1500 nM,,,,
Cc1sc2c(c1C)C(c1ccc(NCC(=O)N3CCC(c4ncc(C(=O)N[C@H]5C(C)(C)[C@H](Oc6ccc(C#N)c(Cl)c6)C5(C)C)cn4)CC3)cc1)=N[C@@H](Cc1ncco1)c1nnc(C)n1-2 [Compound I-274],< 500 nM,> 3000 nM,> 3000 nM,500 to 1500 nM,,,,
Cc1sc2c(c1C)C(c1ccc(O[C@H]3CO[C@]4(CCCN(c5ncc(C(=O)N[C@H]6C(C)(C)[C@H](Oc7ccc(C#N)c(Cl)c7)C6(C)C)cn5)C4)C3)cc1)=N[C@@H](Cc1ncco1)c1nnc(C)n1-2 [Compound I-192],< 500 nM,500 to 1500 nM,500 to 1500 nM,500 to 1500 nM,,,,
Cc1sc2c(c1C)C(c1ccc([C@H]3C[C@H]([C@@H]4CCN(c5ncc(C(=O)N[C@H]6C(C)(C)[C@H](Oc7ccc(C#N)c(Cl)c7)C6(C)C)cn5)C4)C3)cc1)=N[C@@H](Cc1ncco1)c1nnc(C)n1-2 [Compound I-414],> 3000 nM,> 3000 nM,> 3000 nM,> 3000 nM,,,,
Cc1sc2c(c1C)C(c1ccc(N3CC4(CCN(c5ncc(C(=O)N[C@H]6C(C)(C)[C@H](Oc7ccc(C#N)c(Cl)c7)C6(C)C)cn5)CC4)C3)cc1)=NC(Cc1ncco1)c1nnc(C)n1-2 (some centres unmarked) [Compound I-207],,,500 to 1500 nM,500 to 1500 nM,< 500 nM,> 3000 nM,,
"Cc1sc2c(c1C)C(c1ccc(CCCOC3CCN(c4ncc(C(=O)N[C@H]5C(C)(C)[C@H](Oc6ccc(C#N)c(Cl)c6)C5(C)C)cn4)CC3)cc1)=N[C@@H](Cc1ccccn1)c1nnc(C)n1-2 [Compound I-212, N-[3-(3-chloro-4-cyano-phenoxy)-2,2,4,4-tetramethyl-cyclobutyl]-2-[4-[3-[4-[(9S)-4,5,13-trimethyl-9-(2-pyridylmethyl)-3-thia-1,8,11,12-tetrazatricyclo[8.3.0.02,6]trideca-2(6),4,7,10,12-pentaen-7-yl]phenyl]propoxy]-1-piperidyl]pyrimidine-5-carboxamide]",< 500 nM,> 3000 nM,< 500 nM,< 500 nM,,,,
Cc1sc2c(c1C)C(c1ccc([C@@H]3CCN(C(=O)[C@H]4CCCN(c5ncc(C(=O)N[C@H]6C(C)(C)[C@H](Oc7ccc(C#N)c(Cl)c7)C6(C)C)cn5)C4)C3)cc1)=N[C@@H](Cc1ncco1)c1nnc(C)n1-2 [Compound I-386],> 3000 nM,> 3000 nM,> 3000 nM,500 to 1500 nM,,,,
Cc1sc2c(c1C)C(c1ccc(CN3CC4(C3)CN(c3ncc(C(=O)N[C@H]5C(C)(C)[C@H](Oc6ccc(C#N)c(Cl)c6)C5(C)C)cn3)CCO4)cc1)=NC(Cc1ncco1)c1nnc(C)n1-2 (some centres unmarked) [Compound I-139],< 500 nM,< 500 nM,< 500 nM,< 500 nM,,,,
